Laboratory results: patent publication US8183243B2, “Melanocortin receptor agonists” (LG Life Sciences Ltd., priority 2008, dated 2012)
Like-named read-outs stand apart in the source and are kept apart here.

Target: T1, MC4R (Homo sapiens, UniProt P32245)
T1 construct: expressed in transfected cells; host or cells: HEK (Human Embryonic Kidney) permanent expression cell line HEK MC4R-Luc, co-expressing CRE-luciferase
Experiment: MCR agonistic activity (luciferase assay / cAMP accumulation assay) on MC4R
Format: cell-based
Conditions: HEK cell lines expressing MC4R, not said which
Procedure: Physiological activity of the compounds of the present invention was assessed by measuring agonistic activity as well as binding activity for melanocortin receptors (MCR) according to methods A and B explained as follows.
As one of the methods to measure MCR agonistic activity of the compound according to the present invention, the expression level of a marker gene (for example, luciferase) which increases proportionally according to the increase of cAMP content in the cell, was measured.
First, permanent expression HEK (Human Embryonic Kidney) cell lines (HEK MC1R-Luc, MC3R-Luc, MC4R-Luc or MC5R-Luc) expressing the MCR gene of each subtype together with luciferase gene (CRE-LUC) under the control of CRE (cAMP Response Element) were constructed. The above cell lines were incubated in an incubator with 6% CO2 atmosphere at 37° C. using selection medium, DMEM(Dulbecco's Modified Eagles Medium) containing 10% heat-inactivated fetal bovine serum (Gibco/BRL), 100 unit/ml, penicillin (Gibco/BRL), 100 unit/ml streptomycin (Gibco/BRL), and 200 μg/ml geneticin (G418) (Gibco/BRL). When the cell covered 70% of total surface of the culture dish with 100 mm diameter, the culture dish was rinsed one time with 10 ml Phosphate Buffered Saline(PBS) free of Ca^++ and Mg^++, and then 3 ml PBS solution containing 0.05% trypsin and 0.53 mM EDTA was added thereto. After the trypsin/EDTA solution was removed, the cell lines were incubated in an thermostatic incubator for 1 minute at 37° C., and resuspended in 10 ml selection medium and centrifuged for 5 minutes at 1500 rpm. The supernatant was discarded and the settled cells were resuspended in 5 ml selection medium free of Phenol Red. The resulting cell-suspension was plated onto each well of 96-well culture plates for Luminometer(Costar) with a concentration of 5×10^4 cell in 100 μl culture medium for each well and incubated in the incubator with 6% CO2 atmosphere at 37° C. for 18 hours. With MCR agonists (Example compounds) diluted stepwise using the above culture medium, the cells were treated under the condition of the final DMSO concentration not exceeding 1%, and incubated for 5 hours in the atmosphere of 6% CO2 at 37° C. Then, 50 μl Bright-Glo (Promega) was added to each well. After allowing the treated cells to be at room temperature for 15 minutes, luminescence was measured for each well by using luminometer (Victor). The level of luminescence induced by the stepwise-diluted agonist was converted to relative % value to those by the treatment of 10 nM NDP-MSH. The EC50 indicates the concentration of each agonist for inducing 50% of maximal luminescence by each agonist and this value was measured by a statistical software (Prizm).
B. cAMP Accumulation Assay
As another method to measure MCR agonistic activity of the compound according to the present invention, an increase of cAMP amount in the cell was measured.
First, permanent expression HEK (Human Embryonic Kidney) cell lines (HEK MC1R-Luc, MC3R-Luc, MC4R-Luc or MCSR-Luc) expressing the MCR gene of each subtype were plated onto each well of 24-well culture plates for Luminometer(Costar) with a concentration of 2×10^5 cell in 1 ml culture medium for each well, and then incubated in an incubator with 6% CO2 atmosphere at 37° C. for 24 hours. The medium was removed from each well followed by rinsing with 0.5 ml cold DMEM one time. With MCR agonists (Example compounds) diluted stepwise using 200 μl DMEM including 500 μM IBMX (isobutylmethylxanthine), the cells were treated under the condition of the final DMSO concentration not exceeding 1%, and incubated for 30 minutes in the atmosphere of 6% CO2 at 37° C. Then, the cAMP amount in each cell was measured using Amersham cAMP assay Kit (TRK432).
More specifically, 14.4 μl of 6M PCA (60%) was added to each well, and allowed to be in ice for 10 minutes, and 200 μl sample was taken from each well and transferred to microcentrifuge tube. […]

[1] = method A (CRE-luciferase) or B (cAMP accumulation), read-out: EC50 value, agonistic activity to MC4R (range per group of Examples)
[2] = specific activities of representative compounds, method A or B, read-out: EC50

T1 sequence (P32245 whole entry, species assumed): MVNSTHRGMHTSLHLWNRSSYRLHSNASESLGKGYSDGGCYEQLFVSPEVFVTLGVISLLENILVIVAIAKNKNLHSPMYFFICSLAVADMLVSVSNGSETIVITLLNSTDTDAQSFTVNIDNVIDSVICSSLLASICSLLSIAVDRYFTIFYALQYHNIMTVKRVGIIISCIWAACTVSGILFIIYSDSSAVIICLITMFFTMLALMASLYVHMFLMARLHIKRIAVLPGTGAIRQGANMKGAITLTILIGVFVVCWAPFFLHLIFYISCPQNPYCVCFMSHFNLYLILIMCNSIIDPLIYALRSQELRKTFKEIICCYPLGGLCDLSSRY

Compound	EC50 [1] [nM]	EC50 [2] [nM]
CN1CCN(C(=O)[C@@H]2C[C@H](N(C(=O)[C@@H]3CCCO3)C3CCC(F)(F)CC3)CN2C(=O)[C@@H]2CN(C(C)(C)C)C[C@H]2c2ccc(Cl)cc2)CC1 [Example 31, (2S)-N-{(3S,5S)-1-{[(3S,4R)-1-tert-butyl-4-(4-chlorophenyl)pyrrolidin-3-yl]carbonyl}-5-[(4-methylpiperazin-1-yl)carbonyl]pyrrolidin-3-yl}-N-(4,4-difluorocyclohexyl)tetrahydrofuran-2-carboxamide]	10 to 100	–
CN1CCN(C(=O)[C@H]2C[C@H](N(C(=O)[C@@H]3CCCO3)C3CCC(C)(C)CC3)CN2C(=O)[C@@H]2CN(C(C)(C)C)C[C@H]2c2ccc(F)cc2F)CC1 [Example 32, (2S)-N-{(3S,5R)-1-{[(3S,4R)-1-tert-butyl-4-(2,4-difluorophenyl)pyrrolidin-3-yl]carbonyl}-5-[(4-methylpiperazin-1-yl)carbonyl]pyrrolidin-3-yl}-N-(4,4-dimethylcyclohexyl)tetrahydrofuran-2-carboxamide]	0.1 to 10	4
CN1CCN(C(=O)[C@H]2C[C@H](N(C(=O)C(C)(C)C)[C@H]3CC[C@@H](C)CC3)CN2C(=O)[C@@H]2CN(C(C)(C)C)C[C@H]2c2ccc(F)cc2F)CC1 [Example 33, N-{(3S,5R)-1-{[(3S,4R)-1-tert-butyl-4-(2,4-difluorophenyl)pyrrolidin-3-yl]carbonyl}-5-[(4-methylpiperazin-1-yl)carbonyl]pyrrolidin-3-yl}-2,2-dimethyl-N-(cis-4-methylcyclohexyl)propanamide]	10 to 100	–
CN1CCN(C(=O)[C@H]2C[C@H](N(C(=O)[C@@H]3CCCO3)C3CCC(C)(C)CC3)CN2C(=O)[C@@H]2CN(C(C)(C)C)C[C@H]2c2ccc(Cl)cc2)CC1 [Example 34, (2S)-N-{(3S,5R)-1-{[(3S,4R)-1-tert-butyl-4-(4-chlorophenyl)pyrrolidin-3-yl]carbonyl}-5-[(4-methylpiperazin-1-yl)carbonyl]pyrrolidin-3-yl}-N-(4,4-dimethylcyclohexyl)tetrahydrofuran-2-carboxamide]	0.1 to 10	–
CN1CCN(C(=O)[C@H]2C[C@H](N(C(=O)C(C)(C)CO)[C@H]3CC[C@@H](C)CC3)CN2C(=O)[C@@H]2CN(C(C)(C)C)C[C@H]2c2ccc(Cl)cc2)CC1 [Example 36, N-{(3S,5R)-1-{[(3S,4R)-1-tert-butyl-4-(4-chlorophenyl)pyrrolidin-3-yl]carbonyl}-5-[(4-methylpiperazin-1-yl)carbonyl]pyrrolidin-3-yl}-3-hydroxy-2,2-dimethyl-N-(cis-4-methylcyclohexyl)propanamide]	0.1 to 10	–
CC(=O)N([C@H]1C[C@H](C(=O)N2CCN(C)CC2)N(C(=O)[C@@H]2CN(C(C)(C)C)C[C@H]2c2ccc(Cl)cc2)C1)[C@H]1CC[C@@H](C)CC1 [Example 37, N-{(3S,5R)-1-{[(3S,4R)-1-tert-butyl-4-(4-chlorophenyl)pyrrolidin-3-yl]carbonyl}-5-[(4-methylpiperazin-1-yl)carbonyl]pyrrolidin-3-yl}-N-(cis-4-methylcyclohexyl)acetamide]	0.1 to 10	–
CC(=O)N([C@H]1C[C@H](C(=O)N2CCN(C)CC2)N(C(=O)[C@@H]2CN(C(C)(C)C)C[C@H]2c2ccc(F)cc2F)C1)[C@H]1CC[C@@H](C)CC1 [Example 38, N-{(3S,5R)-1-{[(3S,4R)-1-tert-butyl-4-(2,4-difluorophenyl)pyrrolidin-3-yl]carbonyl}-5-[(4-methylpiperazin-1-yl)carbonyl]pyrrolidin-3-yl}-N-(cis-4-methylcyclohexyl)acetamide]	0.1 to 10	–
CC(=O)N([C@H]1C[C@H](C(=O)N2CCN(C(C)C)CC2)N(C(=O)[C@@H]2CN(C(C)(C)C)C[C@H]2c2ccc(Cl)cc2)C1)[C@H]1CC[C@@H](C)CC1 [Example 39, N-{(3S,5R)-1-{[(3S,4R)-1-tert-butyl-4-(4-chlorophenyl)pyrrolidin-3-yl]carbonyl}-5-[(4-isopropylpiperazin-1-yl)carbonyl]pyrrolidin-3-yl}-N-(cis-4-methylcyclohexyl)acetamide]	0.1 to 10	–
CN1CCN(C(=O)[C@@H]2C[C@H](N(C(=O)[C@@H]3CCCO3)C3CCC(C)(C)CC3)CN2C(=O)[C@@H]2CN(C3CCOCC3)C[C@H]2c2ccc(Cl)cc2)CC1 [Example 41, (2S)-N-{(3S,5S)-1-{[(3S,4R)-4-(4-chlorophenyl)-1-(tetrahydro-2H-pyran-4-yl)pyrrolidin-3-yl]carbonyl}-5-[(4-methylpiperazin-1-yl)carbonyl]pyrrolidin-3-yl}-N-(4,4-dimethylcyclohexyl)tetrahydrofuran-2-carboxamide]	0.1 to 10	3
CN1CCN(C(=O)[C@@H]2C[C@H](N(C(=O)[C@@H]3CCCO3)C3CCC(C)(C)CC3)CN2C(=O)[C@@H]2CN(C3CC3)C[C@H]2c2ccc(Cl)cc2)CC1 [Example 42, (2S)-N-{(3S,5S)-1-{[(3S,4R)-4-(4-chlorophenyl)-1-cyclopropylpyrrolidin-3-yl]carbonyl}-5-[(4-methylpiperazin-1-yl)carbonyl]pyrrolidin-3-yl}-N-(4,4-dimethylcyclohexyl)tetrahydrofuran-2-carboxamide]	10 to 100	–
Cc1ccc(N2C[C@@H](C(=O)N3C[C@@H](N(C(=O)[C@@H]4CCCO4)C4CCC(C)(C)CC4)C[C@H]3C(=O)N3CCN(C)CC3)[C@H](c3ccc(Cl)cc3)C2)nn1 [Example 43, (2S)-N-{(3S,5S)-1-{[(3S,4R)-4-(4-chlorophenyl)-1-(6-methylpyridazin-3-yl)pyrrolidin-3-yl]carbonyl}-5-[(4-methylpiperazin-1-yl)carbonyl]pyrrolidin-3-yl}-N-(4,4-dimethylcyclohexyl)tetrahydrofuran-2-carboxamide]	0.1 to 10	10
CN1CCN(C(=O)[C@@H]2C[C@H](N(C(=O)[C@@H]3CCCO3)[C@H]3CC[C@@H](C)CC3)CN2C(=O)[C@@H]2CN(c3ccc(Cl)nn3)C[C@H]2c2ccc(F)cc2F)CC1 [Example 44, (2S)-N-{(3S,5S)-1-{[(3S,4R)-4-(2,4-difluorophenyl)-1-(6-chloropyridazin-3-yl)pyrrolidin-3-yl]carbonyl}-5-[(4-methylpiperazin-1-yl)carbonyl]pyrrolidin-3-yl}-N-(cis-4-methylcyclohexyl)tetrahydrofuran-2-carboxamide]	10 to 100	–
CN1CCN(C(=O)[C@@H]2C[C@H](N(C(=O)[C@@H]3CCCO3)C3CCC(C)(C)CC3)CN2C(=O)[C@@H]2CN(c3cccnn3)C[C@H]2c2ccc(F)cc2F)CC1 [Example 45]	0.1 to 10	8
CN1CCN(C(=O)[C@@H]2C[C@H](N(C(=O)[C@@H]3CCCO3)[C@H]3CC[C@@H](C)CC3)CN2C(=O)[C@@H]2CN(c3ccccc3)C[C@H]2c2ccc(Cl)cc2)CC1 [Example 46, (2S)-N-{(3S,5S)-1-{[(3S,4R)-4-(4-chlorophenyl)-1-phenylpyrrolidin-3-yl]carbonyl}-5-[(4-methylpiperazin-1-yl)carbonyl]pyrrolidin-3-yl}-N-(cis-4-methylcyclohexyl)tetrahydrofuran-2-carboxamide]	10 to 100	–
